# Laboratory results reported in ChEMBL document CHEMBL1697781, “Assessment of the health effects of chemicals in humans: II. Construction of an adverse effects database for QSAR modeling” (Curr Drug Discov Technol, 2004).
# Columns and labels:
# Conditions in all cases: human; call rule not given here
# Hepatotoxicity [1] = test: FDA HLAED, liver enzyme composite activity
# Hepatotoxicity [2] = test: FDA HLAED, alkaline phosphatase increase
# Hepatotoxicity [3] = test: FDA HLAED, serum glutamic oxaloacetic transaminase (SGOT) increase
# Hepatotoxicity [4] = test: FDA HLAED, serum glutamic pyruvic transaminase (SGPT) increase
# Hepatotoxicity [5] = test: FDA HLAED, lactate dehydrogenase (LDH) increase
# Hepatotoxicity [6] = test: FDA HLAED, gamma-glutamyl transferase (GGT) increase
# Throughout, for GGT Increase - Index Value: reference of the scale not given here.
# Throughout, for LDH Increase - Index Value: reference of the scale not given here.
SMILES,Composite Activity - Active (Hepatotoxicity [1]),Composite Activity - Marginal (Hepatotoxicity [1]),Composite Activity - Score (Hepatotoxicity [1]),Alkaline Phosphatase Increase - Activity Score (Hepatotoxicity [2]),Alkaline Phosphatase Increase - Index Value (Hepatotoxicity [2]),Alkaline Phosphatase Increase - Number of Reports (Hepatotoxicity [2]),SGOT Increase - Activity Score (Hepatotoxicity [3]),SGOT Increase - Index Value (Hepatotoxicity [3]),SGOT Increase - Number of Reports (Hepatotoxicity [3]),SGPT Increase - Activity Score (Hepatotoxicity [4]),SGPT Increase - Index Value (Hepatotoxicity [4]),SGPT Increase - Number of Reports (Hepatotoxicity [4]),LDH Increase - Activity Score (Hepatotoxicity [5]),LDH Increase - Index Value (Hepatotoxicity [5]),LDH Increase - Number of Reports (Hepatotoxicity [5]),GGT Increase - Activity Score (Hepatotoxicity [6]),GGT Increase - Index Value (Hepatotoxicity [6]),GGT Increase - Number of Reports (Hepatotoxicity [6]),also measured
C[C@]12CC[C@H]3[C@@H](CCC4=CC(=O)CC[C@@]43C)[C@@H]1CC[C@@H]2OC(=O)CCC1CCCC1 [TESTOSTERONE CYPIONATE],0,0,Inactive,Inactive,0,< 4,Inactive,4.8,< 4,Inactive,7.2,< 4,Inactive,2.4,< 4,Inactive,4.8,< 4,–
CCCCCCC(=O)O[C@H]1CC[C@H]2[C@@H]3CCC4=CC(=O)CC[C@]4(C)[C@H]3CC[C@]12C [TESTOSTERONE ENANTHATE],0,0,Inactive,Inactive,0,< 4,Inactive,4.8,< 4,Inactive,7.2,< 4,Inactive,2.4,< 4,Inactive,4.8,< 4,–
CCCCCCCCCC(=O)CC(=O)O[C@H]1CC[C@H]2[C@@H]3CCC4=CC(=O)CC[C@]4(C)[C@H]3CC[C@]12C [TESTOSTERONE KETOLAURATE],0,0,Inactive,Inactive,0,< 4,Inactive,4.8,< 4,Inactive,7.2,< 4,Inactive,2.4,< 4,Inactive,4.8,< 4,–
C[C@]12CC[C@H]3[C@@H](CCC4=CC(=O)CC[C@@]43C)[C@@H]1CC[C@@H]2OC(=O)Cc1ccccc1 [TESTOSTERONE PHENYLACETATE],0,0,Inactive,Inactive,0,< 4,Inactive,4.8,< 4,Inactive,7.2,< 4,Inactive,2.4,< 4,Inactive,4.8,< 4,–
CCC(=O)O[C@H]1CC[C@H]2[C@@H]3CCC4=CC(=O)CC[C@]4(C)[C@H]3CC[C@]12C [TESTOSTERONE PROPIONATE],0,0,Inactive,Inactive,0,< 4,Inactive,4.8,< 4,Inactive,7.2,< 4,Inactive,2.4,< 4,Inactive,4.8,< 4,–
C[C@]12CC[C@H]3[C@@H](CCC4=CC(=O)CC[C@@]43C)[C@@H]1CC[C@@H]2O [TESTOSTERONE],0,0,Inactive,Inactive,0,< 4,Inactive,4.8,< 4,Inactive,7.2,< 4,Inactive,2.4,< 4,Inactive,4.8,< 4,–
Cn1c(=O)c2[nH]cnc2n(C)c1=O.O [THEOPHYLLINE],0,0,Inactive,Inactive,0,< 4,Inactive,0,< 4,Inactive,0,< 4,Inactive,0,< 4,Inactive,0,< 4,–
Clc1ccccc1CN1CCc2sccc2C1 [TICLOPIDINE],–,–,–,Inactive,0,< 4,Inactive,0,< 4,Inactive,0,< 4,Inactive,0,< 4,Inactive,0,< 4,Composite Activity - Active (Hepatotoxicity [1]; Liver): 0; Composite Activity - Marginal (Hepatotoxicity [1]; Liver): 0; Composite Activity - Score (Hepatotoxicity [1]; Liver): Inactive
CC(C)(C)NC[C@H](O)COc1nsnc1N1CCOCC1 [TIMOLOL],0,0,Inactive,Inactive,0.1,< 4,Inactive,0.1,< 4,Inactive,0.1,< 4,Inactive,0.1,< 4,Inactive,0,< 4,–
Clc1ccc(C(Cn2ccnc2)OCc2ccsc2Cl)c(Cl)c1 (stereo unspecified) [TIOCONAZOLE],–,–,–,Inactive,0,< 4,Inactive,0,< 4,Inactive,0,< 4,Inactive,0,< 4,Inactive,0,< 4,Composite Activity - Active (Hepatotoxicity [1]; Liver): 0; Composite Activity - Marginal (Hepatotoxicity [1]; Liver): 0; Composite Activity - Score (Hepatotoxicity [1]; Liver): Inactive
CC(S)C(=O)NCC(=O)O (stereo unspecified) [TIOPRONIN],0,0,Inactive,Inactive,0,< 4,Inactive,0,< 4,Inactive,0,< 4,Inactive,0,< 4,Inactive,0,< 4,–
Clc1ccc2nsnc2c1NC1=NCCN1 [TIZANIDINE],–,–,–,Inactive,8.3,< 4,Inactive,16.5,< 4,Active,24.8,< 4,Inactive,8.3,< 4,Inactive,8.3,< 4,Composite Activity - Active (Hepatotoxicity [1]; Liver): 1; Composite Activity - Marginal (Hepatotoxicity [1]; Liver): 0; Composite Activity - Score (Hepatotoxicity [1]; Liver): Inactive
